Source: article PMC9732821, “Neurotrophic Activity and Its Modulation by Zinc Ion of a Dimeric Peptide Mimicking the Brain-Derived Neurotrophic Factor N-Terminal Region” (ACS Chemical Neuroscience, 2022)

Tested on: SH-SY5Y cells
Assay: MTS cell viability assay, RA-differentiated SH-SY5Y cells
Format: cell-based, human
Settings: three days
Procedure: one-way ANOVA with Dunnett’s multiple comparison test , # p<0.05 versus BDNF, according to one-way ANOVA with Sidak’s multiple comparison test).
Figure S 2. MT S assay for BDNF and its mimetic peptides. Cell viability assay of RA - differentiated SH -SY5Y cells treated for three days with 150 ng/ml BDNF of with different concentrations of m-, d- or s-bdnf peptides (M, D and S, respectively). ** p<0.01, *p<0.05, according to one-way ANOVA with Dunnett’s multiple comparison test).
(1 picture or pasted object on this page, not shown here) […]
incubated for 3 days in serum-free DMEM-F12 (morphometric ctrl). […]
SH-SY5Y were seeded at a density of 3.000 cell/well in 96 multiwell and differentiated as describe above. The viability of differentiated cells, in response to the various treatments, was assessed using an MTS assay (CellTiter 96 AQueous One Solution Cell Proliferation Assay kit; Promega) according to the manufacturer’s instructions. The absorbance of formazan at 490 nm was measured in a colorimetric assay with the EnSightTM multimode plate reader (Perkin Elmer). […]
TrkB phosphorylation was monitored after TrkB-eGFP construct immunoprecipitation, similarly to what previously reported for TrkA phosphorylation 3. […]

Substance	cell viability (toxicity) (lower doses of m-bdnf)	cell viability (5–10 μM d-bdnf)
HSDPARRGELSV-NH2 [m-bdnf, linear peptide fragment encompassing the first 12 amino acids of the mature NT N-terminal]	some toxicity	–
HSDPARRGELSVC-C-VSLEGRRAPDSH (disulfide) [d-bdnf]	–	no reduced vitality of the culture
